Results reported in patent US8575135B2 (Gilead Sciences, Inc., priority 2011, dated 2013).
Where two headings read alike, the source gives them in different places.

Legend:
Experiment in all cases: microbe, parasite or virus in culture
Conditions in all cases: Hepatitis C virus
[1] = test system: stable HCV 1a RLuc replicon cells (genotype 1a H77 replicon); type: cell-based
[2] = test system: stable HCV 1b RLuc replicon cells (genotype 1b Con1 replicon); type: cell-based
[3] = test system: stable HCV 2a JFH-1 Rluc replicon cells (L31 present in NS5A); type: cell-based
[4] = test system: NS5A chimeric genotype 2a JFH-1 replicon with genotype 2a J6 strain NS5A gene (M31 present); type: cell-based, HCV
[5] = test system: NS5A chimeric genotype 2a JFH-1 replicon with genotype 2b MD2b-1 strain NS5A gene (M31 present); type: cell-based, HCV
Method in brief: (§1)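 Con1-based 3a and 4a chimeras carried a Pi-RLuc reporter and were transiently transfected into Huh-Lunet cells; the JFH-1-based 2b chimera (RLuc-Neo) was used transiently or as stable replicon cells.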

[6] = test system: NS5A chimeric genotype 1b Con1 replicon with genotype 3a S52 strain NS5A gene; type: cell-based, HCV
Method in brief: as §1

[7] = test system: NS5A chimeric genotype 1b Con1 replicon with genotype 4a ED43 strain NS5A gene; type: cell-based, HCV
[8] = test system: 1a Pi-Rluc replicon with Q30R in genotype 1a NS5A; type: cell-based, HCV
Method in brief: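 Renilla luciferase replicon assay: 1a Pi-RLuc replicon carrying NS5A Q30R, transfected transiently into cured-51 (Huh-7-derived) cells.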

## CCC(C)[C@H](NC(=O)OC)C(=O)N1C[C@@H](C)CC1c1ncc(-c2ccc3c(c2)COc2cc4c(ccc5nc([C@@H]6CC(COC)CN6C(=O)[C@@H](NC(=O)OC)C(C)C)[nH]c54)cc2-3)[nH]1 (stereo in doubt) [Example QC, Methyl {(2S)-1-[(2S,4S)-2-(9-{2-[(2S,4S)-1-{(2S,3R)-2-[(methoxycarbonyl)amino]-3-methylpentanoyl}-4-methylpyrrolidin-2-yl]-1H-imidazol-5-yl}-1,11-dihydroisochromeno[4′,3′:6,7]naphtho[1,2-d]imidazol-2-yl)-4-(methoxymethyl)pyrrolidin-1-yl]-3-methyl-1-oxobutan-2-yl}carbamate]
[1]; read-out: 1a
  EC50: < 1 nM
[1]; read-out: 1a (nM)
  EC50: 0.012 nM
[2]; read-out: 1b (nM)
  EC50: 0.014 nM
[3]; read-out: 2a JFH
  EC50: < 1 nM
[3]; read-out: 2a JFH (nM)
  EC50: 0.008 nM
[4]; read-out: 2a J6
  EC50: < 1 nM
[4]; read-out: 2a Jb (t) (nM)
  EC50: 0.157 nM
[5]; read-out: 2b
  EC50: < 1 nM
[5]; read-out: 2b (t) (nM)
  EC50: 0.317 nM

## CCC(C)[C@H](NC(=O)OC)C(=O)N1C[C@@H](C)CC1c1ncc(-c2ccc3c(c2)COc2cc4c(ccc5nc([C@@H]6CC(COC)CN6C(=O)[C@@H](NC(=O)OC)C(C)OC)[nH]c54)cc2-3)[nH]1 (stereo in doubt) [Example QD, Methyl {(2S,3R)-1-[(2S,4S)-2-(5-{2-[(2S,4S)-1-[N-(methoxycarbonyl)-O-methyl-L-allothreonyl]-4-(methoxymethyl)pyrrolidin-2-yl]-1,11-dihydroisochromeno[4′,3′:6,7]naphtho[1,2-d]imidazol-9-yl}-1H-imidazol-2-yl)-4-methylpyrrolidin-1-yl]-3-methyl-1-oxopentan-2-yl}carbamate]
[1]; read-out: 1a
  EC50: < 1 nM
[1]; read-out: 1a (nM)
  EC50: 0.025 nM
[2]; read-out: 1b (nM)
  EC50: 0.03 nM
[3]; read-out: 2a JFH
  EC50: < 1 nM
[3]; read-out: 2a JFH (nM)
  EC50: 0.013 nM
[4]; read-out: 2a J6
  EC50: < 1 nM
[4]; read-out: 2a Jb (t) (nM)
  EC50: 0.103 nM
[5]; read-out: 2b
  EC50: < 1 nM
[5]; read-out: 2b (t) (nM)
  EC50: 0.193 nM

## CCC(C)C(NC(=O)OC)C(=O)N1CC(COC)C[C@H]1c1nc2ccc3cc4c(cc3c2[nH]1)OCc1cc(-c2cnc(C3C[C@H](C)CN3C(=O)[C@@H](NC(=O)OC)C(C)CC)[nH]2)ccc1-4 (stereo in doubt) [Example QE, Methyl {(3R)-1-[(2S,4S)-2-(9-{2-[(2S,4S)-1-{(2S,3R)-2-[(methoxycarbonyl)amino]-3-methylpentanoyl}-4-methylpyrrolidin-2-yl]-1H-imidazol-5-yl}-1,11-dihydroisochromeno[4′,3′:6,7]naphtho[1,2-d]imidazol-2-yl)-4-(methoxymethyl)pyrrolidin-1-yl]-3-methyl-1-oxopentan-2-yl}carbamate]
[1]; read-out: 1a
  EC50: < 1 nM
[1]; read-out: 1a (nM)
  EC50: 0.013 nM
[2]; read-out: 1b (nM)
  EC50: 0.015 nM
[3]; read-out: 2a JFH
  EC50: < 1 nM
[3]; read-out: 2a JFH (nM)
  EC50: 0.011 nM
[4]; read-out: 2a J6
  EC50: < 1 nM
[4]; read-out: 2a Jb (t) (nM)
  EC50: 0.291 nM
[5]; read-out: 2b
  EC50: < 1 nM
[5]; read-out: 2b (t) (nM)
  EC50: 0.563 nM

## COC(=O)N[C@H](C(=O)N1CCC[C@H]1c1ncc(-c2ccc3c(c2)COc2cc4c(ccc5nc([C@@H]6CCCN6C(=O)[C@H](NC(=O)C6CC6)c6ccccc6)[nH]c54)cc2-3)[nH]1)C(C)C [Compound 516]
[1]; read-out: 1a
  EC50: < 1 nM
[1]; read-out: 1a (nM)
  EC50: 0.015 nM
[2]; read-out: 1b (nM)
  EC50: 0.024 nM
[3]; read-out: 2a JFH
  EC50: < 1 nM
[3]; read-out: 2a JFH (nM)
  EC50: 0.009 nM
[6]; read-out: 3a
  EC50: < 1 nM
[6]; read-out: 3a (nM)
  EC50: 0.005 nM
[4]; read-out: 2a J6
  EC50: < 1 nM
[4]; read-out: 2a J6 (s) (nM)
  EC50: 0.043 nM
[5]; read-out: 2b
  EC50: < 1 nM
[5]; read-out: 2b (s) (nM)
  EC50: 0.013 nM
[7]; read-out: 4a
  EC50: < 1 nM
[7]; read-out: 4a (s) (nM)
  EC50: 0.025 nM
[7]; read-out: 4a (t) (nM)
  EC50: 0.01 nM

## COC[C@H]1C[C@@H](c2nc3ccc4cc5c(cc4c3[nH]2)OCc2cc(-c3cnc([C@@H]4CC[C@H](C)N4C(=O)[C@@H](NC(=O)OC)[C@@H](C)OC)[nH]3)ccc2-5)N(C(=O)[C@@H](NC(=O)OC)[C@@H](C)OC)C1 [Compound 646]
[1]; read-out: 1a (nM) EC50
  EC50: 0.058 nM
[1]; read-out: 1a EC50 range
  EC50: < 1 nM
[2]; read-out: 1b (nM) EC50
  EC50: 0.109 nM
[3]; read-out: 2a JFH (nM) EC50
  EC50: 0.03 nM
[3]; read-out: 2a JFH EC50 range
  EC50: < 1 nM
[4]; read-out: 2a J6 EC50 range
  EC50: < 1 nM
[4]; read-out: 2a Jb (t) (nM) EC50
  EC50: 0.042 nM
[5]; read-out: 2b (s) (nM) EC50
  EC50: 0.262 nM
[5]; read-out: 2b (t) (nM) EC50
  EC50: 0.112 nM
[5]; read-out: 2b EC50 range
  EC50: < 1 nM
[7]; read-out: 4a (s) (nM) EC50
  EC50: 0.034 nM
[7]; read-out: 4a EC50 range
  EC50: < 1 nM

## COC(=O)N[C@H](C(=O)N1[C@@H]2C[C@@H]2C[C@H]1c1ncc(-c2ccc3c(c2)COc2cc4c(ccc5nc([C@@H]6C[C@H](COC(F)F)CN6C(=O)[C@H](NC(=O)OC)c6ccccc6)[nH]c54)cc2-3)[nH]1)C(C)C [Example MW]
[1]; read-out: 1a
  EC50: < 1 nM
[1]; read-out: 1a (nM)
  EC50: 0.012 nM
[2]; read-out: 1b (nM)
  EC50: 0.026 nM
[3]; read-out: 2a JFH
  EC50: < 1 nM
[3]; read-out: 2a JFH (nM)
  EC50: 0.012 nM
[4]; read-out: 2a J6
  EC50: < 1 nM
[4]; read-out: 2a Jb (t) (nM)
  EC50: 0.02 nM
[5]; read-out: 2b
  EC50: < 1 nM
[5]; read-out: 2b (s) (nM)
  EC50: 0.123 nM
[5]; read-out: 2b (t) (nM)
  EC50: 0.043 nM
[7]; read-out: 4a
  EC50: < 1 nM
[7]; read-out: 4a (s) (nM)
  EC50: 0.011 nM

## COC[C@H]1C[C@@H](c2nc3ccc4cc5c(cc4c3[nH]2)OCc2cc(-c3cnc([C@@H]4C[C@H](C)CN4C(=O)[C@@H](NC(=O)OC)[C@@H](C)OC)[nH]3)ccc2-5)N(C(=O)[C@@H](NC(=O)OC)[C@@H](C)OC)C1 [Example NK, Methyl {(2S,3R)-3-methoxy-1-[(2S,4S)-2-[9-(2-{(2S,4S)-1-[N-(methoxycarbonyl)-O-methyl-L-threonyl]-4-methylpyrrolidin-2-yl}-1H-imidazol-5-yl)-1,11-dihydroisochromeno[4′,3′:6,7]naphtho[1,2-d]imidazol-2-yl]-4-(methoxymethyl)pyrrolidin-1-yl]-1-oxobutan-2-yl}carbamate]
[1]; read-out: 1a
  EC50: < 1 nM
[1]; read-out: 1a (nM)
  EC50: 0.049 nM
[2]; read-out: 1b (nM)
  EC50: 0.081 nM
[3]; read-out: 2a JFH
  EC50: < 1 nM
[3]; read-out: 2a JFH (nM)
  EC50: 0.018 nM
[4]; read-out: 2a J6
  EC50: < 1 nM
[4]; read-out: 2a Jb (t) (nM)
  EC50: 0.056 nM
[5]; read-out: 2b
  EC50: < 1 nM
[5]; read-out: 2b (t) (nM)
  EC50: 0.154 nM

## COC(=O)N[C@H](C(=O)N1[C@@H](C)CC[C@H]1c1ncc(-c2ccc3c(c2)COc2cc4c(ccc5nc([C@@H]6C[C@H](C)CN6C(=O)[C@@H](NC(=O)OC)[C@@H](C)OC)[nH]c54)cc2-3)[nH]1)C(C)C [Example NL, Methyl {(2S)-1-[(2S,5S)-2-(5-{2-[(2S,4S)-1-{(2S,3R)-3-methoxy-2-[(methoxycarbonyl)amino]butanoyl}-4-methylpyrrolidin-2-yl]-1,11-dihydroisochromeno[4′,3′:6,7]naphtho[1,2-d]imidazol-9-yl}-1H-imidazol-2-yl)-5-methylpyrrolidin-1-yl]-3-methyl-1-oxobutan-2-yl}carbamate]
[1]; read-out: 1a
  EC50: < 1 nM
[1]; read-out: 1a (nM)
  EC50: 0.011 nM
[2]; read-out: 1b (nM)
  EC50: 0.013 nM
[3]; read-out: 2a JFH
  EC50: < 1 nM
[3]; read-out: 2a JFH (nM)
  EC50: 0.007 nM
[4]; read-out: 2a J6
  EC50: < 1 nM
[4]; read-out: 2a Jb (t) (nM)
  EC50: 0.043 nM
[5]; read-out: 2b
  EC50: < 1 nM
[5]; read-out: 2b (t) (nM)
  EC50: 0.034 nM

## COC[C@H]1C[C@@H](c2nc3ccc4cc5c(cc4c3[nH]2)OCc2cc(-c3cnc([C@@H]4C[C@H](C(F)(F)F)CN4C(=O)[C@@H](NC(=O)OC)C(C)C)[nH]3)ccc2-5)N(C(=O)[C@H](NC(=O)OC)c2ccccc2)C1 [Example PJ, methyl {(1R)-2-[(2S,4S)-2-(9-{2-[(2S,4S)-1-{(2S)-2-[(methoxycarbonyl)amino]-3-methylbutanoyl}-4-(trifluoromethyl)pyrrolidin-2-yl]-1H-imidazol-5-yl}-1,11-dihydroisochromeno[4′,3′:6,7]naphtho[1,2-d]imidazol-2-yl)-4-(methoxymethyl)pyrrolidin-1-yl]-2-oxo-1-phenylethyl}carbamate]
[1]; read-out: 1a (nM) EC50
  EC50: 0.068 nM
[1]; read-out: 1a EC50 range
  EC50: < 1 nM
[2]; read-out: 1b (nM) EC50
  EC50: 0.088 nM
[3]; read-out: 2a JFH (nM) EC50
  EC50: 0.058 nM
[3]; read-out: 2a JFH EC50 range
  EC50: < 1 nM
[4]; read-out: 2a J6 EC50 range
  EC50: < 1 nM
[4]; read-out: 2a Jb (t) (nM) EC50
  EC50: 0.136 nM
[5]; read-out: 2b (s) (nM) EC50
  EC50: 0.854 nM
[5]; read-out: 2b (t) (nM) EC50
  EC50: 0.335 nM
[5]; read-out: 2b EC50 range
  EC50: < 1 nM
[7]; read-out: 4a (s) (nM) EC50
  EC50: 0.056 nM
[7]; read-out: 4a EC50 range
  EC50: < 1 nM

## COC(=O)N[C@H](C(=O)N1C[C@@H](COC(F)F)C[C@H]1c1nc2ccc3cc4c(cc3c2[nH]1)OCc1cc(-c2cnc(C3CCCN3C(=O)OC(C)(C)C)[nH]2)ccc1-4)C(C)C (stereo partly drawn) [Example PQ, tert-butyl 2-[5-(2-{(2S,4S)-4-[(difluoromethoxy)methyl]-1-[N-(methoxycarbonyl)-L-valyl]pyrrolidin-2-yl}-1,11-dihydroisochromeno[4′,3′:6,7]naphtho[1,2-d]imidazol-9-yl)-1H-imidazol-2-yl]pyrrolidine-1-carboxylate]
[1]; read-out: 1a
  EC50: < 1 nM
[1]; read-out: 1a (nM)
  EC50: 0.014 nM
[2]; read-out: 1b (nM)
  EC50: 0.014 nM
[3]; read-out: 2a JFH
  EC50: < 1 nM
[3]; read-out: 2a JFH (nM)
  EC50: 0.005 nM
[4]; read-out: 2a J6
  EC50: < 1 nM
[4]; read-out: 2a J6 (s) (nM)
  EC50: 0.155 nM
[4]; read-out: 2a Jb (t) (nM)
  EC50: 0.025 nM
[5]; read-out: 2b
  EC50: < 1 nM
[5]; read-out: 2b (s) (nM)
  EC50: 0.057 nM
[5]; read-out: 2b (t) (nM)
  EC50: 0.032 nM
[7]; read-out: 4a
  EC50: < 1 nM
[7]; read-out: 4a (s) (nM)
  EC50: 0.017 nM
[7]; read-out: 4a (t) (nM)
  EC50: 0.015 nM
[8]; read-out: 1a Q30R
  EC50: < 1 nM
[8]; read-out: 1a Q30R (nM)
  EC50: 0.106 nM
